One experiment relates to Microdochium nivale. Put plainly: In vitro assessment of combination activity with fungicides, pathogen growing on agar. In kind it is cell-based. To be noted: in combination with azoxystrobin at a rate just below that giving control; visual % control. The protocol: (§1) Selected compounds are assessed in combination with fungicides against a range of commercially important plant pathogenic fungi.
(§2) The test is conducted as follows. A fungicide is applied to a fungal plant pathogen at a rate slightly below that at which it gave any control, in combination with a suitable dose of the test compound. The test compounds are recorded as active if control of the pathogen was observed.
(§3) In more detail, the test is conducted as follows. For each combination of fungicide, pathogen and test compound, the following wells are used. Well 1 contains a fungal pathogen growing on agar, and a fungicide at a rate just below that at which it gave any control of the pathogen. Well 2 is the same as Well 1, except that the test compound is also added at Rate 1. Well 3 is the same as Well 2, except that the test compound is added at Rate 2, where Rate 2 is higher than Rate 1. Finally, as a benchmark, Well 4 is the same as Well 1, except that it contained the fungicide at a higher rate, at which it gave partial control of the pathogen. Each of the Wells 1 to 4 are run in duplicate, giving a total of 8 wells for each combination of fungicide, pathogen and test compound. For each well, after a suitable period of incubation, a visual assessment of the % control of the pathogen by the fungicide is made.
(§4) The following fungicides are used in this assay: azoxystrobin, fluxapyroxad, and desthio prothioconazole. The following fungal pathogens are used in this assay: First, a strain of Zymoseptoria tritici with a reduced susceptibility to strobilurin fungicides; second a strain of Zymoseptoria tritici with a reduced susceptibility to SDHI fungicides (i.e., those that inhibit succinate dehydrogenase); and third, Microdochium nivale. […] In contrast, compounds of the present disclosure are effective in the combination assay, enhancing fungicidal activity of one or more fungicides against at least one strain.

Experiment [1] has as its system strain of Zymoseptoria tritici with a reduced susceptibility to strobilurin fungicides. The description is as above. In kind it is cell-based. The settings on record: in combination with azoxystrobin, fluxapyroxad or desthio prothioconazole. As to the method:
as §1, §2, §3, §4

Experiment [2] deals with strain of Zymoseptoria tritici with a reduced susceptibility to SDHI fungicides. The description is as above. It is filed as cell-based. To be noted: in combination with azoxystrobin, fluxapyroxad or desthio prothioconazole. As to the method:
as §1, §2, §3, §4

A further experiment concerns apyrase. As to the kind of experiment: Apyrase inhibition assay (screen for apyrase inhibitors, phosphate release read at 630 nm). It is filed as biochemical. To be noted: inhibitor conc at 1 mM (10 μl added), 3 mM ATP, pH 6.5, room temperature 1 hr.
Experiment [3] concerns Amaranthus retroflexus (pigweed). As to the kind of experiment: Enhancement of herbicide activity: pre-emergence Amaranthus kill with metribuzin. To be noted: for pest or weed control at 100 g/ha: Amaranthus retroflexus. In kind it is in vivo. As to the method:
Specifically, Amaranthus retroflexus (pigweed) was treated pre-emergence with metribuzin alone or in combination with an enhancer compound disclosed herein. Fifteen seeds of Amaranthus retroflexus were sown in soil in each pot and then sprayed with a mixture of metribuzin at the appropriate rate shown in Table 5 and the compound of this invention at 100 g/ha using a track sprayer at a water volume of 200 L/hectare. Small amounts of acetone were used to aid solubility. The pots were watered immediately after sowing and treatment and then allowed to stand in a glasshouse. Assessment of kill was made seven and fourteen days after treatment. The test included four replicates for each treatment and the control.

Experiment [4] relates to Brown Rust (Puccinia recondita) on wheat. As to the kind of experiment: Greenhouse crop test: control of Brown Rust on wheat in combination with commercial fungicides. It is filed as in vivo. To be noted: wheat JB Diego, inoculated 24 hours after treatment, evaluated at fourteen days. As to the method: In this method, exemplary compounds were evaluated for their ability to control Brown Rust (Puccinia recondita) on wheat in a controlled greenhouse environment in combination with one of four fungicides, Amistar, Imtrex, Proline or Balaya. In these studies, wheat plants (JB Diego) were used. Seeds were sown in 9 cm diameter pots to a depth of 1 to 2 cm using Petersfield potting compost (75% medium grade peat, 12% screened sterilized loam, 3% medium grade vermiculite, 10% grit (5 mm screened, lime free), 1.5 kg PG mix per m3, lime to pH5.5-6.0 and wetting agent (Vitax Ultrawet 200 ml per m3) and germinated/grown at 23 C under a 16 h day/8 h night light regime. Plants were treated two to three weeks after sowing when they were at the BBCH 11 growth stage ([…]). Wheat plants were inoculated with Puccinia triticina (Brown rust) 24 hours after treatment. A track sprayer was used to treat the plants with the mixture of commercial fungicide and test compound using a water volume of 200 L/ha. Four replicates were used for each combination of fungicide, pathogen and test compound. Each plant was evaluated at fourteen days (once the disease symptoms were fully expressed) for % control of the disease. Appropriate controls were used for all experiments, including an ‘inoculation check’ wherein plants were inoculated with their specific pathogen to assess disease levels. Also, each commercial fungicide was tested on its own as a part of each treatment, this being benchmark against which the experimental compounds were evaluated. […] That is, the present compounds, although not fungicidal by themselves, enhance the activity of fungicides, thus the enhancer compounds work synergistically in combination with fungicides to control disease. • Amistar (0.04 L/ha) • Imtrex (0.45 L/ha) • Proline (0.15 L/ha) • Balaya (0.25 L/ha)

Each structure is given as a SMILES string. Read-outs that look alike come from different tables or passages of the source.

As to `O=C(Nc1cccc([N+](=O)[O-])c1)c1cccc(S(=O)(=O)Nc2ccc(Br)cc2)c1` [Roux Compound 13], the “enhancing the activity of azoxystrobin against Microdochium nivale” value in the experiment with Microdochium nivale is “exhibited activity”. Also, in experiment [1], the “enhancement of fungicide activity against Zymoseptoria tritici strain (reduced susceptibility to strobilurin fungicides)” value is “failing to enhance activity of any fungicide”. The “enhancement of fungicide activity against Zymoseptoria tritici strain (reduced susceptibility to SDHI fungicides)” value in experiment [2] was “failing to enhance activity of any fungicide”.

Regarding `Cc1cccc(NS(=O)(=O)c2ccc(C(C)C)cc2)c1` [Compound A-59, 4-isopropyl-N-(m-tolyl)benzenesulfonamide], the Inhibition result in the experiment on apyrase is recorded as “A (A is inhibition above 30%)”. The pest or weed control at 100 g/ha in experiment [3] (168 h, read-out: Pre-Emergence Amaranthus Kill Percentage, Assessed 7 DAT, Metribuzin rate 50 g/ha) was determined as 14.3%; in experiment [3] (168 h, read-out: Pre-Emergence Amaranthus Kill Percentage, Assessed 7 DAT, Metribuzin rate 100 g/ha) it was 64.6%; in experiment [3] (168 h, read-out: Pre-Emergence Amaranthus Kill Percentage, Assessed 7 DAT, Metribuzin rate 200 g/ha), 95%; in experiment [3] (336 h, read-out: Pre-Emergence Amaranthus Kill Percentage, Assessed 14 DAT, Metribuzin rate 50 g/ha), 25.9%; in experiment [3] (336 h, read-out: Pre-Emergence Amaranthus Kill Percentage, Assessed 14 DAT, Metribuzin rate 100 g/ha), 67.3%; in experiment [3] (336 h, read-out: Pre-Emergence Amaranthus Kill Percentage, Assessed 14 DAT, Metribuzin rate 200 g/ha) it was 100%. In experiment [3] (compound at 100 g/ha with metribuzin, at seven and fourteen days), the “enhancement of metribuzin herbicidal activity” value is recorded as “significant enhancement”. Further, the “Amistar (% control of the disease, compound + fungicide)” value in experiment [4] (with Amistar 0.04 L/ha) was determined as 95.0%. For the same compound, the “Balaya (% control of the disease, compound + fungicide)” value in experiment [4] (with Balaya 0.25 L/ha) was determined as 50.0%. Also, in experiment [4] (with Imtrex 0.45 L/ha), the “Imtrex (% control of the disease, compound + fungicide)” value turned out to be 30.9%. Besides, the “Proline (% control of the disease, compound + fungicide)” value in experiment [4] (with Proline 0.15 L/ha) is 15.6%.

Source of the values: patent US20250275539A1, “APYRASE INHIBITORS” (Texas Crop Science, Inc., priority 2024, published 2025).
